According to publication PMC11335262 (Cellular and Molecular Life Sciences: CMLS, 2024):
Like-named read-outs stand apart in the source and are kept apart here.

Biological target: α9α10^α9Nt–TM2 (Rattus norvegicus, UniProt P43144+Q9JLB5, A103S/A128E/A130V/A141L/A146S/A160Y/A165S/A191G/A194S/A236S/A237S/A238F/A257S/A39E/A49E/A97Q/C241V/D100R/D263A/E60Q/E85T/F249L/G169N/G178N/G188L/G99D/H138Y/H177Y/H180N/H259Y/H92T/I284M/I67K/K96D/L182V/L205H/L214I/L245I/L252F/L278M/L285V/L78A/N199D/N40D/P126S/P127S/P186N/P95R/Q125E/Q53A/R109D/R143T/R151K/R155V/R167Q/R185F/R187A/R203E/R210V/R211K/R212N/R233K/R35S/S129P/S131N/S159T/S192D/T124D/T189D/T215S/T42S/T54V/T87H/V136L/V142I/V184I/V197I/V240I/V274I/V75I)
Assay type: cell-based
Details: 30 µM ACh; for ACh response, % of response at […] Ca^2+: Vhold -90

## [Ca+2] [Ca^2+, Calcium]
  modulation of ACh-evoked responses by extracellular Ca^2+ (in words): potentiated by Ca^2+ up to 0.2 mM and blocked by higher concentrations
0.2 mM Ca^2+
  ACh response, % of response at […] Ca^2+: 322.0 ± 40.0%
3 mM Ca^2+
  ACh response, % of response at […] Ca^2+: 69.5 ± 7.6%
+40 mV
  0.2 / 0 Ca^2+ ratio of response amplitudes: 2.8 ± 0.4
-90 mV
  0.2 / 0 Ca^2+ ratio of response amplitudes: 4.1 ± 0.2
Nominally zero Ca^2+
  ACh response, % of response at […] Ca^2+: 132.4 ± 27.5%
